Measurements from patent US20040057908A1, “Oral compositions and use thereof” (priority 2003, published 2004).
“And” between values parts separate entries of the source, which are not always exact repeats. Identical values can stand only once.

How the values were obtained:
GTF D [1] = molecular target: T1, GTF D (Streptococcus mutans serotype c, UniProt P49331); assay: GTF activity adsorbed onto sHA surface, GTF D; type: biochemical
T1 construct: made in house; host or cells: Streptococcus milleri NH5 (culture supernatant)
Protocol: (§1) Glucosyltransferase activity was measured by the incorporation of [^14C-glucose] from labeled sucrose (NEN Research Products, Boston, Mass.) into glucans (Germaine et al., 1974; Venkitaraman et al., 1995). The GTF enzyme added to each sample for all assays was equivalent to the amount required to incorporate 1.0-1.5 μmol of glucose over the four hours reaction (1.0-1.5 units).
(§2) For surface assays, the GTFs were adsorbed to hydroxyapatite beads coated with clarified whole saliva (free of GTF activity), as detailed elsewhere (Koo et al., 2000c; Schilling and Bowen, 1988, Venkitaraman et al., 1995). The saliva-coated hydroxyapatite (sHA) beads were exposed to sufficient enzyme to saturate the surface as determined experimentally. Following the adsorption of the enzyme, the beads were washed 3 times with buffer to remove the loosely bound material and exposed to 300 μl of the two-fold dilution series of test compounds (or control) for 30 min. at the same concentrations described above. The beads were washed and exposed to 300 μl [^14C-glucose]-sucrose substrate (100.0 mmol/l sucrose, final concentration). The radiolabeled glucan formed was collected and quantified by scintillation counting (Germaine et al., 1974; Venkitaraman et al., 1995). All the solution and surface assays were done in quadruplicate in at least 3 different experiments.

[2] = test system: Streptococcus sobrinus 6715; assay: Rat caries experiment: S. sobrinus recovered from the jaws; type: in vivo, Sprague Dawley rats; conditions: rats, topical twice daily, five weeks; 1.33 mM (fluoride 250 ppm); means (SD)
Protocol: (§3) Seven litters of ten female Sprague Dawley rats aged 14 days were purchased with their dams from Charles River (Kingston, N.Y., USA). […] The experiment proceeded for five weeks, at which time the animals were killed by CO2 asphyxiation. The lower left jaw was aseptically dissected, suspended in 5.0 mL of sterile saline solution, and sonicated (three 10-second pulses with 5-second intervals at 30 watts, Branson Sonifier 450). The suspension was plated on mitis salivarius agar plus streptomycin to estimate S. sobrinus population and on blood agar to determine total cultivable flora (TCF). […] The determination of caries score was blind by codification of the jaws and was done by 1 calibrated examiner. […] The level of significance was 5%.

GTF C [3] = molecular target: T2, GTF C (Streptococcus mutans serotype c, UniProt P13470); assay: GTF activity adsorbed onto sHA surface, GTF C; type: biochemical
T2 construct: The supernatant was carefully collected as the source of GTF C; made in house; host or cells: Streptococcus mutans WHB 410 (endogenous gtfC; urea/Triton extract of washed cells, hydroxyapatite chromatography)
Protocol: as §1, §2

GTF D [4] = molecular target: T1, GTF D; assay: GTF activity in solution, GTF D; type: biochemical; conditions: read-out: GTF D sol. % of Inhib.
Protocol: as §1
(§4) For solution assays, purified GTF B, C, D and Ss were mixed with a two-fold dilution series of the test compounds (concentration ranging from 125 to 500 μM) and incubated with [^14C-glucose]-sucrose substrate (0.2 μCi/ml) (200.0 mmol/l sucrose, 40 μmol/l dextran 9000, 0.02% sodium azide in adsorption buffer—50 mM KCl, 1.0 mM KPO4, 1.0 mM CaCl2, 0.1 mM MgCl2−pH=6.5) to reach a final concentration of 100 mmol/l sucrose (200 μl final volume). For the control, the same reaction was carried out, where ethanol:DMSO (final concentration of 7.5% and 1.25%, v/v) or ethanol (final concentration of 5%, v/v) replaced the test agent solutions. The samples were incubated 37° C. with rocking for 4 h. After incubation, ice-cold ethanol (1.0 ml) was added and the samples were stored for 18 h, 4° C. for precipitation of glucans. Radiolabeled glucan was determined by scintillation counting (Germaine et al., 1974; Venkitaraman et al., 1995).

streptococcal GTFs = test system: T3, streptococcal GTFs; assay: GTF activity adsorbed onto sHA surface, all GTFs stated together; type: biochemical, Streptococcus mutans, S. sanguinis; conditions: 1.33 mM
T3 construct: Streptococcus milleri KSB8, which harbors the gtfB gene from S. mutans GS-5 (for GTF B production)
Protocol: as §1
as §2, with “experiments. […]” for “experiments.”

dental caries = assay: Rat caries experiment: caries scores (Larson's modification of Keyes' system); type: in vivo, Sprague Dawley rats; conditions: Ds and Dm levels; tt-farnesol Dm only; p<0.05
Protocol: as §3

GTF B = molecular target: T4, GTF B (Streptococcus mutans serotype c, UniProt P08987); assay: GTF activity adsorbed onto saliva-coated hydroxyapatite (sHA) surface, GTF B; type: biochemical
T4 construct: made in house; host or cells: Streptococcus milleri KSB8 (culture supernatant)
Protocol: as §1, §2

GTF C [5] = molecular target: T2, GTF C; assay: GTF activity in solution, GTF C; type: biochemical; conditions: read-out: GTF C sol. % of Inhib.
Protocol: as §1, §4

GTF Ss [6] = molecular target: T5, GTF Ss (Streptococcus sanguinis, UniProt A3CLJ9); assay: GTF activity in solution, GTF Ss; type: biochemical, S. sanguinis; conditions: read-out: GTF Ss sol. % of Inhib.
Protocol: as §1, §4

GTF Ss [7] = molecular target: T5, GTF Ss; assay: GTF activity adsorbed onto sHA surface, GTF Ss; type: biochemical, S. sanguinis
Protocol: as §1, §2

[8] = read-out: GTF D surf. % of Inhib.
[9] = read-out: GTF C surf. % of Inhib.
[10] = read-out: GTF B surf. % of Inhib.
[11] = read-out: GTF Ss surf. % of Inhib.

T4 sequence (P08987 35-1476): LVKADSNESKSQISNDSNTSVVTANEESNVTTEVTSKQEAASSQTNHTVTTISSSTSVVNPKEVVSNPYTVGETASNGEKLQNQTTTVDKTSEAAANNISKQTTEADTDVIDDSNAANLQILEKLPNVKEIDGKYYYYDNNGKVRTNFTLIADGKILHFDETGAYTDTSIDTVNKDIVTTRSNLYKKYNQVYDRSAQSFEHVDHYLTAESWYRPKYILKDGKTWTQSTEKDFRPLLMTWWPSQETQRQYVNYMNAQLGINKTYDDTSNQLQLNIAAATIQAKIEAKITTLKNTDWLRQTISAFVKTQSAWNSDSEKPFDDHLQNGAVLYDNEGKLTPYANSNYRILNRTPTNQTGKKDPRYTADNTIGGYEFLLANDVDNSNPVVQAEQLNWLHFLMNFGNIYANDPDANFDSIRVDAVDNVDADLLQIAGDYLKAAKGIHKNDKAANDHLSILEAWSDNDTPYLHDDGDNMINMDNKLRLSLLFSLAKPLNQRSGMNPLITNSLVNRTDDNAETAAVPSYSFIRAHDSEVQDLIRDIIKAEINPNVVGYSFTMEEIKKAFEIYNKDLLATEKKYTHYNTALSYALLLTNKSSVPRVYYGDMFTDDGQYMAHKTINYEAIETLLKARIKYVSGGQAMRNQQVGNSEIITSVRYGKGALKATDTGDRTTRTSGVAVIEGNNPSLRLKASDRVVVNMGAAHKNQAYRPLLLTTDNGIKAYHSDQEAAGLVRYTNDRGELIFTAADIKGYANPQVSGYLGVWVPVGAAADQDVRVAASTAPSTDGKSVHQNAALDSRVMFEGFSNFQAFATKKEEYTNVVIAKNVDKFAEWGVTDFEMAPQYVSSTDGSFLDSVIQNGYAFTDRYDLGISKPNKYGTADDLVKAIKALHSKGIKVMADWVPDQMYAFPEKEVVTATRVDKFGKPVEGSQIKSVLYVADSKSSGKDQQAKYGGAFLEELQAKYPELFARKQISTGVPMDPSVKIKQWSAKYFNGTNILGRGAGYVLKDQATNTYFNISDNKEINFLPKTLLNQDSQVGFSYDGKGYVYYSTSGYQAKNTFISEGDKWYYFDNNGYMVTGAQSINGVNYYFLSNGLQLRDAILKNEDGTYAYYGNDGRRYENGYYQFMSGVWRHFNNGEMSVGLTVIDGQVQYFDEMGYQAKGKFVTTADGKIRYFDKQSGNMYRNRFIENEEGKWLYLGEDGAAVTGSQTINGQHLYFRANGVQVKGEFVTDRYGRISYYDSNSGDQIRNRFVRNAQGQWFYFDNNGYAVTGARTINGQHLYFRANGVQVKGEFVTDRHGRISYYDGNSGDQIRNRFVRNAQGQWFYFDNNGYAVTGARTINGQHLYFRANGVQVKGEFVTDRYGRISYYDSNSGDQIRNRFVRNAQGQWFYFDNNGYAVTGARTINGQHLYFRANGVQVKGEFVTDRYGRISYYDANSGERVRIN
T1 sequence (P49331 whole entry): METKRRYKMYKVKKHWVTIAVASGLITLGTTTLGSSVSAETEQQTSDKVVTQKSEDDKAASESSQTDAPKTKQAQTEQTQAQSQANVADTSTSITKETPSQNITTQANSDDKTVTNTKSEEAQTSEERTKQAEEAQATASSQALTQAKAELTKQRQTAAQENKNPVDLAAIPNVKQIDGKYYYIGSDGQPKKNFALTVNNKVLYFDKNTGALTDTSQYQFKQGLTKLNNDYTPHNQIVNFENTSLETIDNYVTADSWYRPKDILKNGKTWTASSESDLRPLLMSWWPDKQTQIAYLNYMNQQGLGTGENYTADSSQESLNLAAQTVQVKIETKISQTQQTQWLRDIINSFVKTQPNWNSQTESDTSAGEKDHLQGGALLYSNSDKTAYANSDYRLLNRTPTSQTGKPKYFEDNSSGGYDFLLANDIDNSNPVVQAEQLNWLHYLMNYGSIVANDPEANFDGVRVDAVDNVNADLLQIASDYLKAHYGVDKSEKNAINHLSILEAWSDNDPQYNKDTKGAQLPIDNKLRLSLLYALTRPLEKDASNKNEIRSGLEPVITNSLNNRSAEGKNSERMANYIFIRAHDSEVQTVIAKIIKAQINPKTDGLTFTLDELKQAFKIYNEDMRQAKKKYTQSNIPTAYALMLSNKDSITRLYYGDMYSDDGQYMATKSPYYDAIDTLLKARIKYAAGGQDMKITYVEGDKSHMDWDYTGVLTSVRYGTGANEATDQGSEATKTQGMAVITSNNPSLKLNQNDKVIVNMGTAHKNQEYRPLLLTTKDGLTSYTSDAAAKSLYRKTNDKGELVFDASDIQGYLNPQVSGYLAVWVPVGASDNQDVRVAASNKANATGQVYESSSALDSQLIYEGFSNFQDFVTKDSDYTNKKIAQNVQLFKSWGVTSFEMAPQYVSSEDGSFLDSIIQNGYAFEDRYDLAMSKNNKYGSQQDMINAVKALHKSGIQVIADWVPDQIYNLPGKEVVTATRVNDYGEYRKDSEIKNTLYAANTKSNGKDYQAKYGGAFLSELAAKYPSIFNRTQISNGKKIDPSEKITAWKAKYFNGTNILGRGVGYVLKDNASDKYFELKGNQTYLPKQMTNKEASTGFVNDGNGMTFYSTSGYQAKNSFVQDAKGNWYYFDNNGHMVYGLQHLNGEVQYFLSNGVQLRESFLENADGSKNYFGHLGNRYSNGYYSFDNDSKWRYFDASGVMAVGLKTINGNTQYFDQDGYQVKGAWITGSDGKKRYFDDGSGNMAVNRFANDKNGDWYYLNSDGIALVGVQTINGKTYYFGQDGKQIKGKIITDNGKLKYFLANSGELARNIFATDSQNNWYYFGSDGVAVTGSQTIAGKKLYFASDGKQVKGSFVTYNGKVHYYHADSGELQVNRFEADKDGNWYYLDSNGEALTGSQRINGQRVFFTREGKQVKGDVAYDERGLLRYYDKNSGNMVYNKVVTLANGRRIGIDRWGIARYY
T2 sequence (P13470 35-1455): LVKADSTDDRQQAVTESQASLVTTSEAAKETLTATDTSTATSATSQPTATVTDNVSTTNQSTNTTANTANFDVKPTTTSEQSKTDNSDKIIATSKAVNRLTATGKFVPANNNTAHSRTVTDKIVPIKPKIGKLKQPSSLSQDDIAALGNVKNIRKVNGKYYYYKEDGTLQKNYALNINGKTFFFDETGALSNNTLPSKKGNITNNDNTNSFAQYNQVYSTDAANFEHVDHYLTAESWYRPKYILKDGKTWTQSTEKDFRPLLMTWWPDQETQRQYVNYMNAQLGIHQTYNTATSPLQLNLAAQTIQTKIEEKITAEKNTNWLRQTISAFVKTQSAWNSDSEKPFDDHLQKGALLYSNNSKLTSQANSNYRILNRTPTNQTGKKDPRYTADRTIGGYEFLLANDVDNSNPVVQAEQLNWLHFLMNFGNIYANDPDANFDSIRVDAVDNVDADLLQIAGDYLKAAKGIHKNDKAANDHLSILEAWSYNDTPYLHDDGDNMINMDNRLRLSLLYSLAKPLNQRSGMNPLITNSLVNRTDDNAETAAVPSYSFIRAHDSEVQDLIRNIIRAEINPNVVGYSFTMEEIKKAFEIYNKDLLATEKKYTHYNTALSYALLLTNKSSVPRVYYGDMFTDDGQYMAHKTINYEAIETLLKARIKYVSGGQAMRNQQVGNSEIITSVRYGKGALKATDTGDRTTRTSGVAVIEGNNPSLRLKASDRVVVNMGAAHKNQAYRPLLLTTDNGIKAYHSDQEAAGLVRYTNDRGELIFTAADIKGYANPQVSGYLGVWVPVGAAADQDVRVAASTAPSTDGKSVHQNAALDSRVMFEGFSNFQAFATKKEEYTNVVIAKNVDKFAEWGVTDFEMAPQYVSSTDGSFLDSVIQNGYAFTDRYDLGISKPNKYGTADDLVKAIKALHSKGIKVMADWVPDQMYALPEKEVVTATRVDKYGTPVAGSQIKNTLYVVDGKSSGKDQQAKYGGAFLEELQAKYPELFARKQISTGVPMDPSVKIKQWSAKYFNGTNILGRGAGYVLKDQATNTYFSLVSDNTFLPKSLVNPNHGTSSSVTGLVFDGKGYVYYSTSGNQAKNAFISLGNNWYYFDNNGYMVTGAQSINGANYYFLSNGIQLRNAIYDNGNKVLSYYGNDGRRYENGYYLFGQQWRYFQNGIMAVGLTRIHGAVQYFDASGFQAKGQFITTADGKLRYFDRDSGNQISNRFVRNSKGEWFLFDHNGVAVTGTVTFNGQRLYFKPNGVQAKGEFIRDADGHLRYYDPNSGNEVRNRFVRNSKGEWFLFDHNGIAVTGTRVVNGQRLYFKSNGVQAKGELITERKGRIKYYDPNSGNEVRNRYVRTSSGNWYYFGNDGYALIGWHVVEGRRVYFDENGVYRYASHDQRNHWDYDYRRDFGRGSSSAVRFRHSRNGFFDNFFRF

`O=c1cc(-c2ccc(O)cc2)oc2cc(O)cc(O)c12` [Apigenin] was tested. Which IC50 (GTF D [1]) did it give?
The IC50 was greater than 1000 µM.

And the inhibition at 125 µM (GTF D [1]; [8])?
The inhibition at 125 µM was 17%.

And the inhibition at 250 µM (GTF D [1]; [8])?
The inhibition at 250 µM was 25.5%.

And the inhibition at 500 µM (GTF D [1]; [8])?
Its inhibition at 500 µM is 33%.

What about the “Infection by S. sobrinus, %” value [2] of the same molecule?
The value was 40.6 (14.2)^ab %.

What about the IC50 (GTF C [3]; IC50 for surface-adsorbed GTF C, surface-adsorbed) of the same molecule?
Its IC50 is 458 µM and 451 µM.

And the inhibition at 125 µM (GTF C [3]; [9])?
The inhibition at 125 µM was 30%.

What about the inhibition at 250 µM (GTF C [3]; [9]) of the same molecule?
The inhibition at 250 µM was 42.1%.

And the inhibition at 500 µM (GTF C [3]; [9])?
The inhibition at 500 µM was 60.5%.

And the inhibition at 125 µM (GTF D [4])?
The inhibition at 125 µM was 70.8%.

What about the inhibition at 250 µM (GTF D [4]) of the same molecule?
Its inhibition at 250 µM is 90.2%.

What about the inhibition at 500 µM (GTF D [4]) of the same molecule?
The inhibition at 500 µM was 95%.

And the “inhibition of GTFs on a surface” value (streptococcal GTFs)?
The value was 60-70%.

And the “smooth-surface caries severity scores versus control (in words)” value (dental caries)?
The value was “significantly lower”.

And the IC50 (GTF B; IC50 for surface-adsorbed GTF B, surface-adsorbed)?
Its IC50 is 478 µM and 474 µM.

And the inhibition at 125 µM (GTF B; [10])?
The inhibition at 125 µM was 31.8%.

And the inhibition at 250 µM (GTF B; [10])?
Its inhibition at 250 µM is 40%.

What about the inhibition at 500 µM (GTF B; [10]) of the same molecule?
Its inhibition at 500 µM is 55.5%.

What about the inhibition at 125 µM (GTF C [5]) of the same molecule?
Its inhibition at 125 µM is 77.5%.

What about the inhibition at 250 µM (GTF C [5]) of the same molecule?
The inhibition at 250 µM was 87.5%.

And the inhibition at 500 µM (GTF C [5])?
Its inhibition at 500 µM is 90.5%.

What about the inhibition at 125 µM (GTF Ss [6]) of the same molecule?
Its inhibition at 125 µM is 83.2%.

And the inhibition at 250 µM (GTF Ss [6])?
Its inhibition at 250 µM is 91.2%.

And the inhibition at 500 µM (GTF Ss [6])?
The inhibition at 500 µM was 92.7%.

And the inhibition at 125 µM (GTF Ss [7]; [11])?
The inhibition at 125 µM was 13.8%.

And the inhibition at 250 µM (GTF Ss [7]; [11])?
The inhibition at 250 µM was 20.2%.

And the inhibition at 500 µM (GTF Ss [7]; [11])?
Its inhibition at 500 µM is 30%.

What about the IC50 (GTF Ss [7]; read-out: IC50 for surface-adsorbed GTF SS, surface-adsorbed) of the same molecule?
Its IC50 is greater than 1000 µM.
